Article PMC7375803, “TBR-760, a Dopamine-Somatostatin Compound, Arrests Growth of Aggressive Nonfunctioning Pituitary Adenomas in Mice” (Endocrinology, 2020)
Where “and” joins values, the source holds several entries; their conditions need not be identical. Equal values may be shown once. Read-outs that look alike come from different tables or passages of the source.

How the values were obtained:
[1] = test system: NFPAs in heterozygous POMC KO mice; test: Study 2: TBR-760 vs individual DA and SST agonists on pituitary tumor growth; type: in vivo, mouse
Excerpt: (§1) Wild-type mice (3 male, 3 female) at age 6 months were scanned by MRI to determine average normal pituitary size. Heterozygous POMC KO mice were screened using MRI starting at average age 6.5 months (range, 5.5-9.5 months). These screening scans served to select animals for the study once reaching the baseline tumor volume of 10 mm^3 and to ensure reasonably homogenous groups. Most animals developed tumors within an average of 1.5 months after their first scan and at that point were randomly assigned to experimental groups. Two studies were conducted, the first comparing several doses of TBR-760 vs vehicle, and a second study comparing a fully effective dose of TBR-760 vs the molar equivalent and the 10× molar equivalent (based on the dose of TBR-760) of a pure SST agonist (BIM-23023), a pure DA agonist (BIM-53097), and the combination of the two. The concentration of the DA agonist was doubled to reflect the 2:1 ratio of DA:SST moieties present in TBR-760.
(§2) All groups were composed of 3 males and 3 females, with the exception of the vehicle- and TBR-760-treated groups (n = 8, 4 males/4 females) of the second study, which were maintained for survival analysis as described later. Once entered into the study, all mice received MRI scans for baseline, followed by scans at 2 weeks, 1 month, and 2 months after the baseline scan. Once tumor volume reached 10 mm^3 in the heterozygous POMC KO mice, the mice were treated by daily subcutaneous injection, with each injection given at the same approximate time of day. The mice were euthanized 8 weeks after start of treatment (ie, after the last scan), and pituitary tissue was collected, weighed, and flash-frozen, with the exception of the TBR-760 and vehicle-treated groups in the second study, which were maintained for survival analysis.
(§3) All studies were conducted on a Bruker 7T/210 mm Biospec system (Bruker) at the Duke Center for In Vivo Microscopy. The initial screening scans, conducted at age 6 months in wild-type mice, and average age 6.5 months (range, 5.5-9.5 months) in heterozygous POMC KO mice, were fast scans with scan times of 4 minutes (rapid acquisition with refocused echoes [RARE], repetition time [TR] = 1 second, echo time [TE] = 50 ms; 100 μm × 100 μm × 0.4 mm). Images were analyzed in ImageJ ([36]). Treatment monitoring MRI scans were carried out at 2 weeks, 1 month, and 2 months after start of treatment. For all monitoring scans, parameters were 40-minute scan time (RARE; TR = 5 seconds, TE = 50 ms; 100 μm × 100 μm × 0.3 mm). All scans included complete sectional scans of the pituitary, which were used to calculate tumor volume. MR images were preprocessed using bias field correction to account for the sensitivity profile of the receive coil, thus enhancing the tumor contrast. A trained analyst then manually segmented the tumor on each slice of the MRI. Volume of the tumor was then calculated by multiplying the area of the segmentation by the slice thickness for each slice of the image.
To compare the ability of TBR-760 to arrest aggressive pituitary tumor growth in the POMC KO mouse model vs its individual SST or DA components, either alone or in combination, heterozygous POMC KO mice were again randomly assigned to treatment groups when they presented with tumors approximately 10 mm^3 in size as determined by MRI. […]

[2] = Subcutaneous pharmacokinetics, plasma by HPLC-MS/MS; type: in vivo; conditions: mouse, 4 mg/kg sc, POMC KO mice, n = 4
Protocol: To study and compare the pharmacokinetic behavior of TBR-760, the DA analogue BIM-53097 and the SST analogue BIM-23023 solutions with appropriate concentrations were prepared as described earlier and mice were injected subcutaneously at time 0 with a dose of 4 mg/kg. Blood samples were collected at 15 and 30 minutes, and 1, 2, 4, 6, 8 and 24 hours after injection, and processed to obtain plasma. The determination of TBR-760, BIM-23023, or BIM-53097 was based on 100 μL plasma volume and was carried out by high-pressure liquid chromatography tandem mass spectrometry (HPLC-MS/MS) after protein precipitation with acetonitrile and subsequent solid-phase extraction. HPLC-MS/MS was performed on an AB SCIEX API 4000 LC-MS/MS with electrospray ionization operated in multiple-reaction monitoring mode for the analysis (Waters Corporation). Pharmacokinetic parameters were calculated by noncompartmental analyses using WinNonLin (version 5.2).

[3] = molecular target: T1, human somatostatin type 2 receptor (SSTR2) (Homo sapiens, UniProt P30874); conditions: read-out: SSTR2 agonist activity cAMP, EC50; cited from earlier work
SSTR1 = molecular target: SSTR1; design: method as in earlier work; conditions: read-out: binding affinity for SSTR1; cited from earlier work
SSTR4 = molecular target: SSTR4; design: method as in earlier work; conditions: read-out: binding affinity for SSTR4; cited from earlier work
[4] = molecular target: T2, human dopamine type 2 receptor (D2R) (Homo sapiens, UniProt P14416); test: D2R receptor binding affinity; conditions: internal Tiburio data
Excerpt: Table 1. Receptor binding affinity and agonist activity at human dopamine type 2 and somatostatin type 2 | column: D2R binding, Ki nM

[5] = molecular target: T2, human dopamine type 2 receptor (D2R); test: D2R agonist activity, cAMP; type: cell-based; conditions: internal Tiburio data
Protocol: Table 1. Receptor binding affinity and agonist activity at human dopamine type 2 and somatostatin type 2 | column: D2R agonist activity cAMP, EC50 nM

residual NFPAs = test system: residual NFPAs; design: method as in PMID 30540568; conditions: after 24 months, cited from earlier work
[6] = molecular target: T1, human somatostatin type 2 receptor (SSTR2); test: SSTR2 receptor binding affinity; conditions: internal Tiburio data
Excerpt: Table 1. Receptor binding affinity and agonist activity at human dopamine type 2 and somatostatin type 2 | column: SSTR2 binding, Ki nM

[7] = molecular target: T1, human somatostatin type 2 receptor (SSTR2); test: SSTR2 agonist activity, cAMP; type: cell-based; conditions: internal Tiburio data
Protocol: Table 1. Receptor binding affinity and agonist activity at human dopamine type 2 and somatostatin type 2 | column: SSTR2 agonist activity cAMP, EC50 nM

[8] = test system: NFPAs in heterozygous POMC KO mice; test: Study 1: TBR-760 dose comparison on pituitary tumor growth (MRI volume, tumor weight); type: in vivo, mouse; conditions: mean ± SEM; for tumor volume after 8 weeks of treatment: vehicle 72.5 ± 5.9; for tumor weight after 8 weeks of treatment: vehicle 36 ± 7.4
Excerpt: as §1, §2, §3
At that time, treatment was initiated with daily subcutaneous injections of either vehicle or 0.125, 1.25, or 12.5 mg/kg of TBR-760 for 8 weeks. […] The dramatic difference in tumor growth between vehicle- and TBR-760–treated mice was further confirmed by visual comparison and measurement of weights of pituitaries on death of the mice (Fig. 7B and 7C).

[9] = test system: NFPAs in heterozygous POMC KO mice; test: Survival analysis of tumor-bearing mice; type: in vivo, mouse; conditions: TBR-760 1 mg/kg/day, at euthanasia; vehicle 45.76 ± 6.28
Excerpt: In the second study, the survival of TBR-760–treated mice was examined and compared with vehicle-treated mice. After the initial 8-week treatment period was complete, vehicle-treated mice were paired with TBR-760–treated mice, and treatment continued as before. When a vehicle-treated mouse died, its TBR-760-treated mouse partner continued to receive treatment for an additional 8 weeks before being euthanized. On death or euthanasia, pituitaries were collected, weighed, and flash-frozen.
Statistical analysis was performed using PRISM8 (GraphPad 2018). An ANOVA was performed followed by post hoc analysis with Dunnett’s multiple comparisons test. Results are expressed as mean ± SEM. P less than .05 was considered statistically significant. Survival analysis was performed using PRISM8 using the Gehan-Breslow-Wilcoxon test to compare the survival curves.

[10] = test system: cultured human NFPA cells; design: method as in PMID 18509006; conditions: in vitro; cited from earlier work

T1 sequence (P30874 whole entry): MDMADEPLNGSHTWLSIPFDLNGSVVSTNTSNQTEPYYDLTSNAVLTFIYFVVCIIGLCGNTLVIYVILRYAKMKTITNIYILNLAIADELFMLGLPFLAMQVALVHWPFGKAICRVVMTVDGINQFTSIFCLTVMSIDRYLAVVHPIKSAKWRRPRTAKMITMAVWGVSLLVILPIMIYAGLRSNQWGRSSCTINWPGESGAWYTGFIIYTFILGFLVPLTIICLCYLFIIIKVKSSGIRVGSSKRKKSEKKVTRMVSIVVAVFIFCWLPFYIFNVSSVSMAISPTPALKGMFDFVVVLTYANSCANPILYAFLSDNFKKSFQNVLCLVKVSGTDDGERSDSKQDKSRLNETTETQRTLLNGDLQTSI
T2 sequence (P14416 whole entry): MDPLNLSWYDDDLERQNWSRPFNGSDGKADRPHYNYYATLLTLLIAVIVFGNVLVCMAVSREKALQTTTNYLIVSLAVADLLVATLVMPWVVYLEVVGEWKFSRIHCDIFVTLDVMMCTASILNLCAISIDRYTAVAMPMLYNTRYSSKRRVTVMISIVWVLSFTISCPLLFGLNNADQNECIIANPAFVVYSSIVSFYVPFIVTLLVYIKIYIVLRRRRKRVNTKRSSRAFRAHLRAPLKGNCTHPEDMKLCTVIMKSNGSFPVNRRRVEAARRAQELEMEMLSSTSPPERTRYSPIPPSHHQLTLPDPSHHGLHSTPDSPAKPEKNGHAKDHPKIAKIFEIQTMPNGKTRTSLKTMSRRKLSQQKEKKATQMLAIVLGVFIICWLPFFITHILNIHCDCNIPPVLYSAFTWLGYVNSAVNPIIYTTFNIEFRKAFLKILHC

SMILES: CC[C@@H]1NC(=O)[C@H](CCCCN)NC(=O)[C@@H](Cc2c[nH]c3ccccc23)NC(=O)[C@H](Cc2ccc(O)cc2)NC(=O)[C@@H](NC(=O)[C@H](N)Cc2ccccc2)CSSC[C@@H](C(=O)N[C@H](C(N)=O)[C@@H](C)O)NC1=O [BIM-23023, reference compound]
- pituitary weight vs untreated, tumor-bearing controls ([1]; after 8 weeks of treatment): not significantly different
- effect on tumor growth vs vehicle ([1]; either dose (1 or 10 mg/kg) daily sc, 8 weeks): failed to show significant effects on tumor growth
- AUC(0-inf) [2]: 2860 ng·h/mL
- Cmax [2]: 2300 ng/mL
- Tmax [2]: 0.25 h
- half-life [2]: 0.59 h
- EC50 [3]: 0.14 nM
- Ki (SSTR1): > 1000 nM
- Ki (SSTR4): > 1000 nM

SMILES: C=CCN1C[C@H](C(=O)N(CCCN(C)C)C(=O)NCC)C[C@@H]2c3cccc4[nH]cc(c34)C[C@H]21 [Cabergoline]
- Ki [4]: 0.8 nM
- EC50 [5]: 0.026 nM
- patients with significant tumor shrinkage (residual NFPAs; nonintervention group 10.5%): 28.8%
- patients with tumor growth (residual NFPAs; nonintervention group 15.8%): 5.1%
- patients with stabilization of tumor (residual NFPAs; nonintervention group 73.7%): 66.1%

SMILES: CCCN1C[C@H](CSCC(=O)NCCCC[C@@H](NC(=O)CSC[C@@H]2C[C@@H]3c4cccc5[nH]cc(c45)C[C@H]3N(CCC)C2)C(=O)N[C@H]2CSSC[C@@H](C(=O)N[C@H](C(N)=O)[C@@H](C)O)NC(=O)[C@H](CC)NC(=O)[C@H](CCCCN)NC(=O)[C@@H](Cc3c[nH]c4ccccc34)NC(=O)[C@H](Cc3ccc(O)cc3)NC2=O)C[C@@H]2c3cccc4[nH]cc(c34)C[C@H]21 [TBR-760]
- Ki [4]: 12.1 nM
- EC50 [5]: 0.064 nM
- Ki [6]: 0.01 nM
- EC50 [7]: 1.22 nM
- tumor volume after 8 weeks of treatment ([8]; 0.125 mg/kg daily sc): 16.5 ± 2.6 mm^3
- tumor weight after 8 weeks of treatment ([8]; 0.125 mg/kg daily sc): 5.4 ± 0.67 mg
- tumor volume after 8 weeks of treatment ([8]; 1.25 mg/kg daily sc): 10.9 ± 1.1 mm^3
- tumor weight after 8 weeks of treatment ([8]; 1.25 mg/kg daily sc): 5.0 ± 0.61 mg
- tumor volume after 8 weeks of treatment ([8]; 12.5 mg/kg daily sc): 12.3 ± 1.0 mm^3
- tumor weight after 8 weeks of treatment ([8]; 12.5 mg/kg daily sc): 4.8 ± 0.61 mg
- tumor volume after 8 weeks of treatment ([1]; 1 mg/kg/day sc, 8 weeks, mean ± SEM, vehicle 54.6 ± 10.6): 8.5 ± 1.3 mm^3
- proportion of treated mice with tumor shrinkage ([1]; TBR-760 1 mg/kg/day sc): 20%
- mean tumor volume reduction in mice whose tumors shrank ([1]; TBR-760 1 mg/kg/day sc, 1 mg/kg/day): 44.7% and 45%
- final tumor weight [9]: 5.42 ± 0.52 mg
- AUC(0-inf) [2]: 1880 ng·h/mL
- Cmax [2]: 354 ng/mL
- Tmax [2]: 2 h
- half-life [2]: 2.56 h
- Ki (SSTR1): 843 nM
- Ki (SSTR4): > 1000 nM
- proportion of NFPAs examined with significant inhibition of cell proliferation [10]: approximately 60%
